What all share (assay type): in vivo, C57BL/6J mice
Test [1] concerns subacute MPTP mouse model. Put plainly: Open field test, total movement distance, subacute MPTP mouse model. To be noted: for Total movement distance in the open field test: Selegiline 0.5 mg/kg/d i.p. How it is done:
(§1) The mice were weighed and recorded, and injected subcutaneously at the back of the neck at 20 mg/kg, once a day for 5 consecutive days. Subsequent experiments were performed on the 1st, 3rd, 7th and 14th days after the last administration.
(§2) 128 healthy adult mice were randomly divided into six groups according to body weight, including normal control (Sham) group (n=20), MPTP model group (n=28), low-dose Lepalvir (10 U/kg/d) treatment group (n=20), medium-dose Lepalvir (20U/kg/d) treatment group (n=20), high-dose Lepalvir (40 U/kg/d) treatment group (n=20) and positive control drug Selegiline (0.5 mg/kg/d) treatment group (n=20). Among them, mice in the Lepalvir and Selegiline treatment groups were injected with corresponding doses intraperitoneally 1 hour after the first MPTP administration, and continued for 7 or 14 days, once a day. Mice in the MPTP model group were given an equal volume of normal saline (0.1 mL/10 g). Mice in the sham group were only given an equal volume of normal saline (0.1 mL/10 g).
(§3) Behavioral assessment was performed on the 1st, 3rd, 7th and 14th days after the last administration of MPTP.
The open field test was used to evaluate the autonomous movement ability of mouse. The open field apparatus was made of opaque blue plastic and was 60 cm×60 cm×45 cm in size. During the test, each mouse was placed into the box from the central area, and the movement trajectory of each mouse within 5 minutes was recorded at the same time. The total movement distance was calculated using software (Clever Sys Inc., VA, USA). After each mouse was tested, the open field area was wiped with 75% ethanol to prevent the smell of the previous mouse from affecting the next mouse.

Test [2] has as its system subacute MPTP mouse model. Put plainly: Pole climbing test (T-Turn, T-TLA), subacute MPTP mouse model. To be noted: Selegiline 0.5 mg/kg/d i.p. How it is done: as §1, §2, §3
The pole climbing test was used to evaluate the motor coordination function of mouse. The pole used was 1 cm in diameter and 50 cm in height. A wooden ball with a diameter of 1.2 cm was fixed to the top of the pole. The pole was wrapped with anti-slip tape to prevent the mouse from slipping. The mouse was placed on the top of the pole with its head facing up. When the mouse started to […], the timer started and the time it took for the mouse to cross the top of the pole (T-Turn) from the start of the movement and the time it took for the mouse to climb down to the bottom with four paws landing on the ground from the start of the movement (T-TLA) were recoded. Before the formal test, three consecutive trainings were required for each mouse. During the test, three consecutive measurements were required, and the shortest time was selected.

The test system of test [3] is subacute MPTP mouse model. In words: Rotarod test, latency, subacute MPTP mouse model. To be noted: for Latency time: Selegiline 0.5 mg/kg/d i.p. Here is the method:
as §1, §2, §3
The rotarod test was used to evaluate the motor balance and limb coordination of mouse. The mouse was placed on the drum of the Rotarod tester, and the speed was set to increase uniformly from 5 rpm/min to 25 rpm/min within 2 minutes. When the mouse fell from the drum to the sensing area below, an infrared sensor would receive the signal and record the time the mouse moved on the drum of the instrument. Before the formal test, three consecutive trainings were required for each mouse. During the test, three consecutive measurements are required, and the average falling time was selected (latency).
On the technique in general: Falling from the rotarod earlier than controls is read as motor impairment.

The test system of test [4] is Nissl-positive neurons in the substantia nigra pars compacta. In words: Nissl staining, neuron count in substantia nigra pars compacta, subacute MPTP mouse model. The settings on record: for Number of Nissl-positive neurons in the substantia nigra pars compacta: Selegiline 0.5 mg/kg/d i.p. How it is done:
as §1, §2
(§4) On day 7 and day 14 after the last administration of MPTP respectively, half of the mice in each group were selected, anesthetized with 4% chloral hydrate, and perfused with saline +4% PFA to obtain brain tissue. After gradient dehydration in 20% (v/v) and 30% (v/v) sucrose solutions for 3 days respectively, the mouse brain tissue was embedded in OCT glue and frozen, and the Microtome Cryostat (Leica) was used to continuously slice the tissue (20 μm), and the brain slices of the relevant regions were collected, placed in freezing solution (glycerol: 0.01M PBS=1:1) and stored at −80° C. for use.
Nissl bodies are a type of basophilic substance in the cytoplasm that is widely found in various neurons, and thus the number of neurons in the relevant brain regions was calculated by Nissl staining. Staining was performed using the Nissl staining kit.
(§5) Immunohistochemical positive cells were counted using the Stereo Investigator (MBF bioscience) system and the number of Nissl body-positive cells and TH+ cells in the substantia nigra pars compacta were calculated. […]

Test [5] deals with TH-positive neurons in the substantia nigra pars compacta. Put plainly: TH (tyrosine hydroxylase) staining, neuron count in substantia nigra pars compacta, subacute MPTP mouse model. The settings on record: for Number of TH-positive neurons in the substantia nigra pars compacta: Selegiline 0.5 mg/kg/d i.p. How it is done: as §1, §2, §4
TH mainly marks dopaminergic neurons in the substantia nigra pars compacta. […] The midbrain slices were obtained, washed once with 0.01 M PBS for 10 min, and then incubated with 3% H2O2 for 15 min to remove endogenous peroxidase activity. […]
as §5

The mark [6] stands for this setting: positive control Selegiline 0.5 mg/kg/d, day 1, 3, 7, and 14.
Where [7] appears, read: positive control Selegiline 0.5 mg/kg/d, day 7 and 14.

SMILES strings stand for the structures. Where a name gives a salt, the structure may show the parent alone.

Experimental findings from patent publication US20250213622A1 (priority 2022, published 2025) are described below.

Consider `C#CCN(C)[C@H](C)Cc1ccccc1` [Selegiline, Selegiline hydrochloride], for which the “Total movement distance in the open field test” value amounted to 1269 ± 138 mm in test [1] (1 day after last MPTP), 1359 ± 68 mm in test [1] (3 days after last MPTP), 684 ± 68 mm in test [1] (7 days after last MPTP) and 578 ± 51 mm in test [1] (14 days after last MPTP). Moreover, in test [1] (setting [6]), the “Effect on MPTP-induced reduction in total distance traveled (in words)” value was “significantly improved”. The T-TLA in test [2] (Day 1 after last MPTP) worked out at 9.23 ± 0.65 s; in test [2] (Day 3 after last MPTP) it was 5.96 ± 0.49 s; in test [2] (Day 7 after last MPTP), 7.61 ± 0.91 s; in test [2] (Day 14 after last MPTP), 7.90 ± 1.17 s. Moreover, the T-Turn is 1.57 ± 0.10 s in test [2] (Day 1 after last MPTP), 1.35 ± 0.09 s in test [2] (Day 3 after last MPTP), 1.49 ± 0.14 s in test [2] (Day 7 after last MPTP) and 1.49 ± 0.20 s in test [2] (Day 14 after last MPTP). The Latency time worked out at 160.2 ± 4.8 s in test [3] (Day 1 after last MPTP), 173.1 ± 2.2 s in test [3] (Day 3 after last MPTP), 168.5 ± 3.5 s in test [3] (Day 7 after last MPTP) and 166.7 ± 4.2 s in test [3] (Day 14 after last MPTP). The “Effect on MPTP-induced shortening of rotarod latency (in words)” value in test [3] (setting [6]) was “significantly improved”. The “Number of Nissl-positive neurons in the substantia nigra pars compacta” value is on record as 10688 ± 458 in test [4] (Day 7 after last MPTP) and 11024 ± 539 in test [4] (Day 14 after last MPTP). In addition, the “Effect on MPTP-induced decrease in number of Nissl-stained positive neurons (in words)” value in test [4] (setting [7]) is listed as “significantly improved”. In addition, the “Number of TH-positive neurons in the substantia nigra pars compacta” value is recorded as 9578 ± 441 in test [5] (Day 7 after last MPTP) and 9670 ± 692 in test [5] (Day 14 after last MPTP). In addition, the “Effect on MPTP-induced decrease in number of TH-positive neurons (in words)” value in test [5] (setting [7]) is “significantly improved”.
